Results reported in patent publication US20260306644A1, “ANTIBODY RECRUITING MOLECULES FOR THE TREATMENT OF CORONAVIRUS DISEASE-19” (priority 2023, published 2026).
Read-outs that look alike come from different tables or passages of the source. Positions of bridges follow the written chain, without caps; N, C: chain ends. Residues, ends and D or L forms follow the SMILES beside them.

How the values were obtained:
[1] = target: SARS-CoV-2 Spike protein (Severe acute respiratory syndrome coronavirus 2, UniProt P0DTC2); experiment: Ternary binding of SARS-CoV-2 Spike protein (293T cells expressing Spike-GFP, IgG-AF647, flow cytometry); type: cell-based; conditions: 293T cells expressing Spike-GFP; IgG-AF647 10 μg/ml; repeat values/batches listed separately; read-out: SARS-CoV-2 Ternary binding EC50
Procedure: 293T cells stably expressing SARS-CoV-2 Spike-GFP protein on their surface were incubated with a concentration range of compound for 30 minutes at 37° C.-5% CO2 in Roswell Park Memorial Institute Medium (RPMI)-5% low IgG serum with 10 μg/ml IgG-Alexa Fluor® 647 (AF647). The cells were washed twice using the same medium, resuspended in phosphate-buffered saline (PBS)-1% bovine serum albumin (BSA), and acquired on Attune™ NxT Flow Cytometer. In some embodiments, mean fluorescence intensity of AF647 as well as […] AF647 positive in GFP positive gate are reported as readouts in this assay.

[2] = target: T1, SARS-CoV-2 Spike A (wild-type) (Severe acute respiratory syndrome coronavirus 2, UniProt P0DTC2); experiment: MSD ACE2 competition assay (inhibition of Spike binding with ACE2, ECL), A (wild-type)
T1 construct: purchased Meso Scale Diagnostics, LLC V-PLEX SARS-CoV-2 Panel 13 (ACE2) Kit / Panel 23 (ACE2) Kit

[3] = IC50 Wild Type, Wild Type Spike

## CC[C@H](C)[C@H](NC(=O)[C@H](Cc1c[nH]c2ccccc12)NC(=O)[C@H](CCC(=O)O)NC(=O)[C@H](CCCCN)NC(=O)[C@H](CC(=O)O)NC(C)=O)C(=O)N[C@@H](CC(C)C)C(=O)N[C@@H](CCC(N)=O)C(=O)N[C@@H](CCCCN)C(=O)N[C@H](C(=O)N[C@@H](Cc1ccc(O)cc1)C(=O)N[C@@H](CCC(=O)O)C(=O)N[C@H](C(=O)N[C@@H](CCSC)C(=O)N[C@@H](CCCNC(=N)N)C(=O)N[C@@H](CC(C)C)C(=O)N[C@@H](CC(C)C)C(=O)N[C@@H](CC(=O)O)C(=O)N[C@@H](CCC(=O)O)C(=O)N[C@@H](CC(C)C)C(=O)NCC(=O)N[C@@H](Cc1c[nH]cn1)C(=O)N[C@@H](C)C(=O)N[C@@H](CCC(=O)O)C(=O)N[C@@H](C)C(=O)N[C@@H](CO)C(=O)N[C@@H](CCSC)C(=O)N[C@@H](CCCNC(=N)N)C(=O)N[C@H](C(=O)N[C@@H](CO)C(=O)NCCOCCOCCOCCOCCOCCOCCOCCOCCC(=O)NCCOCCOCCOCCOCCOCCOCCOCCOCCC(=O)N[C@@H](CC(=O)O)C(=O)N[C@H]1CSSC[C@@H](C(=O)N[C@H](C(N)=O)[C@@H](C)O)NC(=O)[C@H](Cc2c[nH]c3ccccc23)NC(=O)[C@H](C(C)C)NC(=O)[C@H](CC(C)C)NC(=O)[C@H](CCC(=O)O)NC(=O)CNC(=O)[C@H](CC(C)C)NC(=O)[C@H](Cc2c[nH]cn2)NC(=O)[C@H](Cc2c[nH]c3ccccc23)NC(=O)[C@H](C)NC1=O)C(C)C)[C@@H](C)CC)[C@@H](C)CC [Compound 153]
[1]
  EC50: > 10 nM

## CC[C@H](C)[C@H](NC(=O)[C@H](CC(C)C)NC(=O)[C@H](CC(=O)O)NC(=O)[C@H](CO)NC(=O)[C@@H](NC(=O)[C@H](CCCNC(=N)N)NC(=O)[C@H](CCSC)NC(=O)[C@H](CO)NC(=O)[C@H](C)NC(=O)[C@H](CCC(=O)O)NC(=O)[C@H](C)NC(=O)[C@H](Cc1c[nH]cn1)NC(=O)CNC(=O)[C@H](CC(C)C)NC(=O)[C@H](CCC(=O)O)NC(=O)[C@H](CC(=O)O)NC(=O)[C@H](CC(C)C)NC(=O)[C@H](CC(C)C)NC(=O)[C@H](CCCNC(=N)N)NC(=O)[C@H](CCSC)NC(=O)[C@@H](NC(=O)[C@H](CCC(=O)O)NC(=O)[C@H](Cc1ccc(O)cc1)NC(=O)[C@@H](NC(=O)[C@H](CCCCN)NC(=O)[C@H](CCC(N)=O)NC(=O)[C@H](CC(C)C)NC(=O)[C@@H](NC(=O)[C@H](Cc1c[nH]c2ccccc12)NC(=O)[C@H](CCC(=O)O)NC(=O)[C@H](CCCCN)NC(=O)[C@H](CC(=O)O)NC(C)=O)[C@@H](C)CC)[C@@H](C)CC)[C@@H](C)CC)C(C)C)C(=O)N[C@@H](Cc1ccc(O)cc1)C(=O)N[C@@H](CCC(=O)O)C(=O)N[C@@H](Cc1ccccc1)C(=O)N[C@@H](CCSC)C(=O)N[C@@H](CCCCN)C(=O)N[C@@H](CCCCN)C(=O)NCC(=O)NCCOCCOCCOCCOCCOCCOCCOCCOCCNC(=O)[C@@H]1CSCC(=O)N[C@@H](C)C(=O)N[C@@H](CO)C(=O)N[C@@H](Cc2ccc(O)cc2)C(=O)N[C@@H](Cc2c[nH]cn2)C(=O)N[C@@H](CC(C)C)C(=O)NCC(=O)N[C@@H](CCC(=O)O)C(=O)N[C@@H](CC(C)C)C(=O)N[C@@H](C(C)C)C(=O)N[C@@H](Cc2c[nH]c3ccccc23)C(=O)N2Cc3ccccc3C[C@H]2C(=O)NC(C)(C)C(=O)N1 [Compound 161]
[1]
  EC50: 2.2 nM

## CC[C@H](C)[C@H](NC(=O)[C@H](CC(C)C)NC(=O)[C@H](CC(=O)O)NC(=O)[C@H](CO)NC(=O)[C@@H](NC(=O)[C@H](CCCNC(=N)N)NC(=O)[C@H](CCSC)NC(=O)[C@H](CO)NC(=O)[C@H](C)NC(=O)[C@H](CCC(=O)O)NC(=O)[C@H](C)NC(=O)[C@H](Cc1c[nH]cn1)NC(=O)CNC(=O)[C@H](CC(C)C)NC(=O)[C@H](CCC(=O)O)NC(=O)[C@H](CC(=O)O)NC(=O)[C@H](CC(C)C)NC(=O)[C@H](CC(C)C)NC(=O)[C@H](CCCNC(=N)N)NC(=O)[C@H](CCSC)NC(=O)[C@@H](NC(=O)[C@H](CCC(=O)O)NC(=O)[C@H](Cc1ccc(O)cc1)NC(=O)[C@@H](NC(=O)[C@H](CCCCN)NC(=O)[C@H](CCC(N)=O)NC(=O)[C@H](CC(C)C)NC(=O)[C@@H](NC(=O)[C@H](Cc1c[nH]c2ccccc12)NC(=O)[C@H](CCC(=O)O)NC(=O)[C@H](CCCCN)NC(=O)[C@H](CC(=O)O)NC(C)=O)[C@@H](C)CC)[C@@H](C)CC)[C@@H](C)CC)C(C)C)C(=O)N[C@@H](Cc1ccc(O)cc1)C(=O)N[C@@H](CCC(=O)O)C(=O)NCCOCCOCCOCCOCCOCCOCCOCCOCCC(=O)NCCOCCOCCOCCOCCOCCOCCOCCOCCC(=O)N[C@@H](CC(=O)O)C(=O)N[C@H]1CSSC[C@@H](C(=O)N[C@H](C(N)=O)[C@@H](C)O)NC(=O)[C@H](Cc2c[nH]c3ccccc23)NC(=O)[C@H](C(C)C)NC(=O)[C@H](CC(C)C)NC(=O)[C@H](CCC(=O)O)NC(=O)CNC(=O)[C@H](CC(C)C)NC(=O)[C@H](Cc2c[nH]cn2)NC(=O)[C@H](Cc2c[nH]c3ccccc23)NC(=O)[C@H](C)NC1=O [Compound 154]
[1]
  EC50: > 100 nM

## CC[C@H](C)[C@H](NC(=O)[C@H](CCCCN)NC(=O)[C@H](CCC(N)=O)NC(C)=O)C(=O)N[C@@H](Cc1ccc(O)cc1)C(=O)N[C@@H](CCC(=O)O)C(=O)N[C@H](C(=O)N[C@@H](CCSC)C(=O)N[C@@H](CCCNC(=N)N)C(=O)N[C@@H](CC(C)C)C(=O)N[C@H]1CSSC[C@@H](C(=O)N[C@@H](CCSC)C(=O)N[C@@H](CCCNC(=N)N)C(=O)N[C@H](C(=O)N[C@@H](CO)C(=O)N[C@@H](CC(=O)O)C(=O)N[C@@H](CC(C)C)C(=O)N[C@H](C(=O)N[C@@H](Cc2ccc(O)cc2)C(=O)N[C@@H](CCC(=O)O)C(=O)N[C@@H](Cc2ccccc2)C(=O)N[C@@H](CCSC)C(=O)N[C@@H](CCCCN)C(=O)N[C@@H](CCCCN)C(=O)NCC(N)=O)[C@@H](C)CC)C(C)C)NC(=O)[C@H](C)NC(=O)[C@H](CCC(=O)O)NC(=O)[C@H](C)NC(=O)[C@H](Cc2c[nH]cn2)NC(=O)CNC(=O)[C@H](CC(C)C)NC(=O)[C@H](CCC(=O)O)NC(=O)[C@H](CC(=O)O)NC1=O)[C@@H](C)CC [Compound 178] (Ac-QKIYEIMRLCDELGHAEACMRVSDLIYEFMKKG-NH2; disulfide 10-19)
[2]; [3]
  IC50: > 10000 nM

## CC[C@H](C)[C@H](NC(=O)[C@H](CC(C)C)NC(=O)[C@H](CC(=O)O)NC(=O)[C@H](CO)NC(=O)[C@@H](NC(=O)[C@H](CCCNC(=N)N)NC(=O)[C@H](CCSC)NC(=O)[C@@H]1CSSC[C@H](NC(=O)[C@H](CC(C)C)NC(=O)[C@H](CCCNC(=N)N)NC(=O)[C@H](CCSC)NC(=O)[C@@H](NC(=O)[C@H](CCC(=O)O)NC(=O)[C@H](Cc2ccc(O)cc2)NC(=O)[C@@H](NC(=O)[C@H](CCCCN)NC(=O)[C@@H](N)CCC(N)=O)[C@@H](C)CC)[C@@H](C)CC)C(=O)N[C@@H](CC(=O)O)C(=O)N[C@@H](CCC(=O)O)C(=O)N[C@@H](CC(C)C)C(=O)NCC(=O)N[C@@H](Cc2c[nH]cn2)C(=O)N[C@@H](C)C(=O)N[C@@H](CCC(=O)O)C(=O)N[C@@H](C)C(=O)N1)C(C)C)C(=O)N[C@@H](Cc1ccc(O)cc1)C(=O)N[C@@H](CCC(=O)O)C(=O)N[C@@H](Cc1ccccc1)C(=O)N[C@@H](CCSC)C(=O)N[C@@H](CCCCN)C(=O)N[C@@H](CCCCN)C(=O)NCC(N)=O [Compound 177] (H-QKIYEIMRLCDELGHAEACMRVSDLIYEFMKKG-NH2; disulfide 10-19)
[2]; [3]
  IC50: > 10000 nM

## CC[C@H](C)[C@H](NC(=O)[C@H](CC(C)C)NC(=O)[C@H](CC(=O)O)NC(=O)[C@H](CO)NC(=O)[C@@H](NC(=O)[C@H](CCCNC(=N)N)NC(=O)[C@H](CCSC)NC(=O)[C@@H]1CSSC[C@H](NC(=O)[C@H](CC(C)C)NC(=O)[C@H](CCCNC(=N)N)NC(=O)[C@H](CCSC)NC(=O)[C@@H](NC(=O)[C@H](CCC(=O)O)NC(=O)[C@H](Cc2ccc(O)cc2)NC(=O)[C@@H](NC(=O)[C@H](CCCCN)NC(=O)[C@H](CCC(N)=O)NC(=O)[C@H](CC(C)C)NC(=O)[C@@H](NC(=O)[C@H](Cc2c[nH]c3ccccc23)NC(=O)[C@H](CCC(=O)O)NC(=O)[C@H](CCCCN)NC(=O)[C@H](CC(=O)O)NC(C)=O)[C@@H](C)CC)[C@@H](C)CC)[C@@H](C)CC)C(=O)N[C@@H](CC(=O)O)C(=O)N[C@@H](CCC(=O)O)C(=O)N[C@@H](CC(C)C)C(=O)NCC(=O)N[C@@H](Cc2c[nH]cn2)C(=O)N[C@@H](C)C(=O)N[C@@H](CCC(=O)O)C(=O)N[C@@H](C)C(=O)N1)C(C)C)C(=O)N[C@@H](Cc1ccc(O)cc1)C(=O)N[C@@H](CCC(=O)O)C(=O)N[C@@H](Cc1ccccc1)C(=O)N[C@@H](CCSC)C(=O)N[C@@H](CCCCN)C(=O)N[C@@H](CCCCN)C(=O)NCC(N)=O [Compound 175] (Ac-DKEWILQKIYEIMRLCDELGHAEACMRVSDLIYEFMKKG-NH2; disulfide 16-25)
[2]; read-out: IC50, Wild Type, Wild Type
  IC50: 7.68 nM

## CC[C@H](C)[C@H](NC(C)=O)C(=O)N[C@@H](CC(C)C)C(=O)N[C@@H](CCC(N)=O)C(=O)N[C@@H](CCCCN)C(=O)N[C@H](C(=O)N[C@@H](Cc1ccc(O)cc1)C(=O)N[C@@H](CCC(=O)O)C(=O)N[C@H](C(=O)N[C@@H](CCSC)C(=O)N[C@@H](CCCNC(=N)N)C(=O)N[C@@H](CC(C)C)C(=O)N[C@H]1CSSC[C@@H](C(=O)N[C@@H](CCSC)C(=O)N[C@@H](CCCNC(=N)N)C(=O)N[C@H](C(=O)N[C@@H](CO)C(=O)N[C@@H](CC(=O)O)C(=O)N[C@@H](CC(C)C)C(=O)N[C@H](C(=O)N[C@@H](Cc2ccc(O)cc2)C(=O)N[C@@H](CCC(=O)O)C(=O)N[C@@H](Cc2ccccc2)C(=O)N[C@@H](CCSC)C(=O)N[C@@H](CCCCN)C(=O)N[C@@H](CCCCN)C(=O)NCC(N)=O)[C@@H](C)CC)C(C)C)NC(=O)[C@H](C)NC(=O)[C@H](CCC(=O)O)NC(=O)[C@H](C)NC(=O)[C@H](Cc2c[nH]cn2)NC(=O)CNC(=O)[C@H](CC(C)C)NC(=O)[C@H](CCC(=O)O)NC(=O)[C@H](CC(=O)O)NC1=O)[C@@H](C)CC)[C@@H](C)CC [Compound 180] (Ac-ILQKIYEIMRLCDELGHAEACMRVSDLIYEFMKKG-NH2; disulfide 12-21)
[2]; [3]
  IC50: 137 nM
